Results published in patent US20230217925A1, “FENCLORIM SEED TREATMENT AS A BIOSTIMULANT” (THE BOARD TRUSTEES OF THE UNIVERSITY OF ARKANSAS, priority 2022, published 2023).

Key:
Format in all cases: in vivo
[1] = tested on: rice seeds of the cultivar Diamond; assay: Greenhouse biostimulant experiment; conditions: 2.5 g/kg of seed vs 0, 30 days after emergence, silt loam soil
Description: A greenhouse biostimulant experiment was performed in 2 experimental runs. Fenclorim was applied to rice seed at 0 or 2.5 g/kg of seed. Five rice seeds of the cultivar Diamond were planted in silt loam soil in 4″ diameter pots 0.5″ apart. At least 9 replications were performed per run. At 14 days after emergence, emerged rice was counted and thinned to 3 plants per pot. Data were collected 30 days after emergence. The leaf area of the rice plants in each pot was determined. Groundcover was determined based on the number of green leaf pixels from an overhead image. Shoot (aboveground) and root (belowground) biomass were determined, and total biomass was determined by adding the mass of the roots and shoots.

[2] = tested on: sixteen of the most common rice cultivars planted in the state of Arkansas; assay: Cultivar screening, fenclorim seed treatment, field plots, aerial image groundcover; conditions: 2.5 g fenclorim per kg of seed vs 0; 45 days after emergence; averaged across all cultivars
Description: (§1) An experiment was conducted to screen for the effects of a fenclorim seed treatment across sixteen of the most common rice cultivars planted in the state of Arkansas. The cultivars screened in the study included ten long-grain inbreds, three medium-grain inbreds, and three long-grain hybrids: ‘Diamond’, ‘Jewel’, ‘DG363L’, ‘CLL 15’, ‘CLL 16’, ‘CLL 17’, ‘PVL02’, ‘PVL03’, ‘RTV7231MA’, ‘CLJ 01’, ‘Jupiter’, ‘Titan’, ‘Lynx’, ‘RT753XP’, ‘RT7321FP’, and ‘RT7521FP’. All seeds were treated with a base treatment comprising a standard rice insecticide (i.e., NipsIt®) and fungicide (i.e., a combination of metalaxyl, fludioxonil, carboxin, and thiram) using a commercial seed treater. Additionally, each seed was treated with 0 or 2.5 g fenclorim per kg of seed. Seed was planted on Apr. 19, 2021, utilizing nine-row plots (5.2 m by 3 m). Aerial images were captured using a DJI Mavic Air 2 45 days after emergence, and images were analyzed using Turf Analyzer.

[3] = tested on: four rice cultivars (Diamond, Titan, RT7521FP, and RT7321FP); assay: Fenclorim dose-response study, results over all four cultivars; conditions: for Increase over control % (groundcover): averaged over all four cultivars, 45 days after emergence
Description: (§2) On Apr. 17, 2021, an experiment was initiated to identify the best rate at which to apply fenclorim as a rice seed treatment. The experiment was conducted using four rice cultivars (Diamond, Titan, RT7521FP, and RT7321FP) and 5 rates of the fenclorim (0, 0.625, 1.25, 2.5, and 5 g/kg seed). Seeds were treated using the aforementioned methods with all seeds having the same base seed treatment. […] At 2.5 g fenclorim per kg of seed, there was a 22% increase (averaged across cultivars) in groundcover compared to the no fenclorim treatment at 45 days after emergence. In this study, rice plant heights and shoot numbers were measured 30 days after emergence. The heights of five random plants were measured per plot and shoot numbers were measured in two 0.5 m sections of row.

rice cultivar Titan = assay: Fenclorim dose-response study, seed treatment (groundcover, shoot numbers); conditions: for Shoots (%), percentage of shoot numbers produced by control plants: 30 days after emergence; for Groundcover (%): 45 days after emergence
Description: as §2

rice cultivar Diamond = assay: as above; conditions: for Shoots (%), percentage of shoot numbers produced by control plants: 30 days after emergence; for Groundcover (%): 45 days after emergence
Description: as §2

rice cultivar RT7521FP = assay: as above; conditions: for Shoots (%), percentage of shoot numbers produced by control plants: 30 days after emergence; for Groundcover (%): 45 days after emergence
Description: as §2

rice cultivar RT7321FP = assay: as above; conditions: for Shoots (%), percentage of shoot numbers produced by control plants: 30 days after emergence; for Groundcover (%): 45 days after emergence
Description: as §2

Diamond rice = Diamond rice evaluation in heavy clay soil, drone image groundcover; conditions: 2.5 g fenclorim per kg of seed vs 0, 45 days after emergence
Description: as §1
An experiment was conducted to test whether fenclorim seed treatment would influence rice growth in a heavy clay soil. Diamond rice was planted on Apr. 22, 2021, using the same practices as the previous experiment, including a treatment with 0 or 2.5 g fenclorim per kg of seed.

Structure (SMILES): Clc1cc(Cl)nc(-c2ccccc2)n1 [fenclorim, 4,6-dichloro-2-phenylpyrimidine]
- increase in aboveground biomass [1]: 14%
- increase in belowground biomass [1]: 63%
- increase in groundcover [1]: 15%
- increase in leaf area [1]: 23%
- increase in total biomass [1]: 40%
- increase in groundcover [2]: 7%
- rice plant heights ([3]; 0.625-5 g/kg seed vs 0, 30 days after emergence, five random plants per plot): not influenced
- shoot number, effect as the seed treatment rate increased ([3]; 0.625-5 g/kg seed vs 0, 30 days after emergence, two 0.5 m sections of row): an increase in shoot number was observed
- Increase over control % (groundcover) ([3]; 0.625 g/kg seed): 12%
- Increase over control % (groundcover) ([3]; 1.25 g/kg seed): 18%
- Increase over control % (groundcover) ([3]; 2.5 g/kg seed): 22%
- Increase over control % (groundcover) ([3]; 5.0 g/kg seed): 23%
- Shoots (%), percentage of shoot numbers produced by control plants (rice cultivar Titan; 0.625 g/kg seed): 111.1%
- Groundcover (%) (rice cultivar Titan; 0.625 g/kg seed): 49.3%
- Shoots (%), percentage of shoot numbers produced by control plants (rice cultivar Titan; 1.25 g/kg seed): 110.5%
- Groundcover (%) (rice cultivar Titan; 1.25 g/kg seed): 47.3%
- Shoots (%), percentage of shoot numbers produced by control plants (rice cultivar Titan; 2.5 g/kg seed): 105.3%
- Groundcover (%) (rice cultivar Titan; 2.5 g/kg seed): 48.1%
- Shoots (%), percentage of shoot numbers produced by control plants (rice cultivar Titan; 5.0 g/kg seed): 102.4%
- Groundcover (%) (rice cultivar Titan; 5.0 g/kg seed): 50.6%
- Shoots (%), percentage of shoot numbers produced by control plants (rice cultivar Diamond; 0.625 g/kg seed): 98.6%
- Groundcover (%) (rice cultivar Diamond; 0.625 g/kg seed): 47.3%
- Shoots (%), percentage of shoot numbers produced by control plants (rice cultivar Diamond; 1.25 g/kg seed): 111.1%
- Groundcover (%) (rice cultivar Diamond; 1.25 g/kg seed): 54.6%
- Shoots (%), percentage of shoot numbers produced by control plants (rice cultivar Diamond; 2.5 g/kg seed): 106.9%
- Groundcover (%) (rice cultivar Diamond; 2.5 g/kg seed): 54.2%
- Shoots (%), percentage of shoot numbers produced by control plants (rice cultivar Diamond; 5.0 g/kg seed): 100%
- Groundcover (%) (rice cultivar Diamond; 5.0 g/kg seed): 52.2%
- Shoots (%), percentage of shoot numbers produced by control plants (rice cultivar RT7521FP; 0.625 g/kg seed): 110.7%
- Groundcover (%) (rice cultivar RT7521FP; 0.625 g/kg seed): 51.8%
- Shoots (%), percentage of shoot numbers produced by control plants (rice cultivar RT7521FP; 1.25 g/kg seed): 112.4%
- Groundcover (%) (rice cultivar RT7521FP; 1.25 g/kg seed): 52.5%
- Shoots (%), percentage of shoot numbers produced by control plants (rice cultivar RT7521FP; 2.5 g/kg seed): 108.8%
- Groundcover (%) (rice cultivar RT7521FP; 2.5 g/kg seed): 51.2%
- Shoots (%), percentage of shoot numbers produced by control plants (rice cultivar RT7521FP; 5.0 g/kg seed): 111.9%
- Groundcover (%) (rice cultivar RT7521FP; 5.0 g/kg seed): 55.9%
- Shoots (%), percentage of shoot numbers produced by control plants (rice cultivar RT7321FP; 0.625 g/kg seed): 115.2%
- Groundcover (%) (rice cultivar RT7321FP; 0.625 g/kg seed): 41.2%
- Shoots (%), percentage of shoot numbers produced by control plants (rice cultivar RT7321FP; 1.25 g/kg seed): 110.3%
- Groundcover (%) (rice cultivar RT7321FP; 1.25 g/kg seed): 46.0%
- Shoots (%), percentage of shoot numbers produced by control plants (rice cultivar RT7321FP; 2.5 g/kg seed): 108.4%
- Groundcover (%) (rice cultivar RT7321FP; 2.5 g/kg seed): 53.9%
- Shoots (%), percentage of shoot numbers produced by control plants (rice cultivar RT7321FP; 5.0 g/kg seed): 112.3%
- Groundcover (%) (rice cultivar RT7321FP; 5.0 g/kg seed): 50.3%
- increase in groundcover (Diamond rice): 4%
